# The source made the active and inactive calls. No cut-off for these calls is given here.
# What was measured:
# Type in all cases: functional
# Staphylococcus aureus [1] = test: Downregulation of acetyl-CoA level in methicillin sensitive Staphylococcus aureus SA113 at 1/2 MIC incubated for 30 mins
# Staphylococcus aureus [2] = test: Downregulation of pflB expression level in methicillin sensitive Staphylococcus aureus SA113 at 1/2 MIC incubated for 2 hrs by MS/MS analysis
# Staphylococcus aureus [3] = test: Induction of matured biofilm eradication in methicillin resistant Staphylococcus aureus YUSA145 assessed as reduction in bacterial survival in biofilm at 8 times MIC incubated for 48 hrs in presence of daptomycin by SYTO 9 staining based confocal fluorescence microscopic analysis
# [4] = system: Staphylococcus epidermidis; test: Antibacterial activity against Staphylococcus epidermidis SE1457 by broth microdilution method
# Staphylococcus aureus [5] = test: Synergistic antibacterial activity against methicillin resistant Staphylococcus aureus USA300 assessed as fractional inhibitory concentration index in presence of daptomycin
smiles,measurement,setting,value
O=C(C1=C(O)C(=O)N(c2nnc(SCc3ccccc3Cl)s2)C1c1ccccc1O)c1cc2ccccc2o1 (stereo unspecified),Activity,Staphylococcus aureus [1],Active
same,Activity,Staphylococcus aureus [2],Active
same,Activity,Staphylococcus aureus [3],>70%
same,MIC50,[4],≥ 50 µM
same,MIC90,[4],≥ 50 µM
same,fractional inhibitory concentration index (FICI),Staphylococcus aureus [5],<=0.5
